Values joined by “and” are separate entries in the source; they are usually repeats but may differ in a detail not shown here. Equal entries are not always repeated. Values belong to the molecule of their own block, whether it stands above or below them. Where a SMILES comes first, the peptide text is derived from it. The star is where a group is joined. DOTA = O=C(O)CN1CCN(CC(=O)O)CCN(CC(=O)*)CCN(CC(=O)O)CC1
What was measured:
Type in all cases: cell-based
[1] = biological target: T1, Neuropeptide Y receptor type 2 (Homo sapiens, UniProt P49146); assay: Displacement of [125I]PYY from human neuropeptide Y2 receptor expressed in human SK-N-BE2 cells after 40 mins
T1 sequence (P49146 whole entry): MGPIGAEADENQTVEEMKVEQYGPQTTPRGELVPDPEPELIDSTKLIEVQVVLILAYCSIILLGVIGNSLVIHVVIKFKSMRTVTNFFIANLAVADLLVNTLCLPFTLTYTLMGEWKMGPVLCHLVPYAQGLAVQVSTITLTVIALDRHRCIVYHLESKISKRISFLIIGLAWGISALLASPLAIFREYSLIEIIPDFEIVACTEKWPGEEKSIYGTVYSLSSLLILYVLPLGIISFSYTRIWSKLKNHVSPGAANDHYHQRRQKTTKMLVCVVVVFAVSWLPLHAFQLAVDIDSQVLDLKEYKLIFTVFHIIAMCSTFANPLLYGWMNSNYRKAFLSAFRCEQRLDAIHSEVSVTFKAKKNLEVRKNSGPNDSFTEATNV

[2] = biological target: Neuropeptide Y receptor type 4 (Homo sapiens, UniProt P50391); assay: Displacement of [125I]Pancreatic polypeptide from human neuropeptide Y4 receptor in human HEK293 cells after 40 mins
Sequence of Neuropeptide Y receptor type 4 (P50391 whole entry): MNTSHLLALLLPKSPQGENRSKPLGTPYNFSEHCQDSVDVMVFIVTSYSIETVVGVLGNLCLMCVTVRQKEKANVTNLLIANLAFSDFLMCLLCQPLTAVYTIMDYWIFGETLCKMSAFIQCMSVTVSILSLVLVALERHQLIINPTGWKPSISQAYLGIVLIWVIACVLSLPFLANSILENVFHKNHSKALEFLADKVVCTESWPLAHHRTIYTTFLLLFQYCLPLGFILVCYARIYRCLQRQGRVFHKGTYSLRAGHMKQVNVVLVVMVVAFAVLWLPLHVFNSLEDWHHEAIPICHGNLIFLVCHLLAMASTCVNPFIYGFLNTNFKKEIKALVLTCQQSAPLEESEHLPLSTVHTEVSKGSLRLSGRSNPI

[3] = biological target: T2, Neuropeptide Y receptor type 1 (Homo sapiens, UniProt P25929); assay: Displacement of [125I]NPY from human neuropeptide Y1 receptor expressed in human MCF7 cells after 40 mins
T2 sequence (P25929 whole entry): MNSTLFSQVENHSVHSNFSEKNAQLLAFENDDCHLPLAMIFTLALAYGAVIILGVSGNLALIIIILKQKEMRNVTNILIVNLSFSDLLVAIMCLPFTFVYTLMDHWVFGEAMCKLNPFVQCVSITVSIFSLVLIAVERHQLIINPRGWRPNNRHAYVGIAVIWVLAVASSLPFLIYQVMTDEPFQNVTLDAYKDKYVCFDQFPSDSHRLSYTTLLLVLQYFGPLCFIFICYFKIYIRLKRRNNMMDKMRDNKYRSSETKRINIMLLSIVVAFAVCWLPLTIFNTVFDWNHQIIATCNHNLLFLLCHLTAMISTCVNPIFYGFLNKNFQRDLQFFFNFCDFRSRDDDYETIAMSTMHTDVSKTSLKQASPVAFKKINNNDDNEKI

Ki [1]: Not Active | Ki ([2]; hek293): Not Active
Molecule: CC[C@H](C)[C@H](N)C(=O)N[C@@H](CC(N)=O)C(=O)N1CCC[C@H]1C(=O)N[C@@H](CCCCNC(=O)CN1CCN(CC(=O)O)CCN(CC(=O)O)CCN(CC(=O)O)CC1)C(=O)N[C@@H](Cc1ccc(O)cc1)C(=O)N[C@@H](CCCNC(=N)N)C(=O)N[C@@H](CC(C)C)C(=O)N[C@@H](CCCNC(=N)N)C(=O)N[C@@H](Cc1ccc(O)cc1)C(N)=O

Ki ([3]; mcf7): Not Active
Molecule: CC(C)C[C@H](NC(=O)[C@H](CCCNC(=N)N)NC(=O)[C@H](Cc1ccc(O)cc1)NC(=O)[C@H](CCCCNC(=O)CN1CCN(CC(=O)O)CCN(CC(=O)O)CCN(CC(=O)O)CC1)NC(=O)[C@@H]1CCCN1C(=O)[C@@H](N)CC(N)=O)C(=O)N[C@@H](CCCNC(=N)N)C(=O)N[C@@H](Cc1ccc(O)cc1)C(=O)O (H-NPK(DOTA)YRLRY-OH)

Ki ([3]; read-out: Ki): 128 nM
Molecule: H-IKPIYRLRY-NH2

Ki ([1]; read-out: Ki): 11.3 nM | Ki ([2]; read-out: Ki): 5.8 nM | Ki ([3]; read-out: Ki): 5 nM and 39 nM
Molecule: H-INPIYRLRY-OH
